We go through one compound from PMC5608406, “In vivo activation of latent HIV with a synthetic bryostatin analog effects both latent cell "kick" and "kill" in strategy for virus eradication” (PLoS Pathogens, 2017).

Series [1] has as its system latent HIV in CD4+ T cells from ART-treated patients. Description: Activation of HIV from latency in patient-derived CD4+ T cells (virion-associated HIV RNA in supernatant). The format is cell-based, human. An excerpt: Nine HIV-infected individuals receiving ART for a median of 2.6 years (range 0.4–9.1) were studied. All study subjects maintained undetectable levels of plasma viremia (<50 copies/mL) at the time of study (S1 Table).
CD4^+ T cells were isolated from cryopreserved peripheral blood mononuclear cells (PBMCs) using a cell enrichment kit (StemCell Technologies). For patient samples 1–6, resting CD4^+ T cells were further isolated by depleting CD25^+, HLA-DR^+ and CD69^+ CD4^+ cells using PE-conjugated antibodies (BD Biosciences) and anti-PE microbeads (Miltenyi Biotec). CD4^+ T cells were incubated with RPMI 1640-based medium containing antiretroviral drugs consisting of T-20 (100 μg/mL), tenofovir (1 μM), and emtricitabine (1 μM), and test stimuli at concentrations indicated in the figures.
The copy number of virion-associated HIV RNA in the cell culture supernatants was measured using the Cobas Ampliprep/Cobas Taqman HIV-1 Test, Version 2.0 (Roche Diagnostics) following 36–48 hours of incubation of cells with the above study compounds. The limit of detection was 20 copies/mL.

A further series has as its system primary CD4+ T cells. Nature of the series: Induction of CD69 expression in primary CD4+ T cells. The format is cell-based, human. The following applies: 24h. How it is done:
Primary human cells from HIV seronegative individuals were cultured in “RF10 medium” consisting of RPMI 1640 medium supplemented with 10% fetal bovine serum (FBS, Omega Scientific), 100 U/mL of penicillin, and 100 μg/mL of streptomycin (Invitrogen). PBMCs were isolated using Ficoll-Paque Plus separation (GE Healthcare). Primary CD4+ T cells were separated from PBMCs by negative immunomagnetic selection using the CD4+ T cell Isolation Kit (Miltenyi Biotec) according to the manufacturer’s instructions. Cells were then exposed to compound for 24 hours before staining and flow cytometric analysis of CD69 levels. Compound incubations were performed by seeding 10^5 cells/well in 100 μL of RF10 media containing the appropriate concentration of compound in wells of a v-bottomed 96-well plate. Bryostatin 1 (Tocris bioscience) and Prostratin (LC Laboratories) were obtained commercially, and bryologs or prostratin analogs were synthesized as previously described.
For human PBMC CD69 induction experiments, cells were stained with CD69-ECD (Beckman Coulter 6607110). During staining, cells were incubated at 4 °C for 20 minutes, washed with 2% FBS in PBS, and then resuspended in 2% paraformaldehyde. Stained samples were stored at 4 °C.
Flow cytometry samples were analyzed using a Cytomics FC 500 (Beckman Coulter) or a LSR Fortessa (BD Biosciences) flow cytometer. Data were analyzed using FlowJo (v7) software.

In a further series the test system is murine splenocytes. Nature of the series: In vivo bioactivity (CD69/CD25 in splenocytes) in C57/bl6 mice. How it is done: C57/bl6 mice were obtained from the UCLA Department of Radiation Oncology. Compounds were suspended in DMSO and then further diluted in RF10 media to produce a final volume of 500 μL (containing a maximum 4% DMSO). These 500 μL volumes were administered to mice by intraperitoneal injection. Mice were monitored for acute toxicities and then sacrificed at the indicated times. Spleens were removed and disaggregated using a steel mesh, and then filtered through a 40 μm filter to produce a single-cell suspension. The resultant splenocytes were then stained for flow cytometry to analyze surface expression of relevant markers.
During standard flow cytometry staining, samples of 10^5 cells were suspended in 50 μL of a 1:1 dilution of phosphate buffered saline (PBS):Human AB serum (Sigma). Staining of C57/bl6 mouse splenocytes was performed by adding the following anti-mouse fluorescent conjugated antibodies: CD3-Fluorescein isothiocyanate (FITC, eBioscience 11-0032-82); CD69-Phycoerythrin (PE, eBioscience 12-0691-83); and CD4-Allophycocyanin (APC, eBioscience 17-0041-83). In some experiments CD4-APC was replaced with CD25-APC (eBioscience 17-0251-82) and CD4-Phycoerythrin Cyanin 7 (PC7, eBioscience 25-0041-82). For humanized mouse studies, PBMC and splenocytes from BLT mice were stained with anti-mouse CD45-Alexa 700 (Biolegend 103128) and the following anti-human antibodies: CD45-e450 (eBioscience 48-0459-42); CD3-APC-780 (eBioscience; 47-0038-42); CD4-V500 (BD biosciences; 560768); CD8-Peridinin chlorophyll protein (PerCP)-710 (eBioscience 46-0087-42); CD25-PE (Beckman IM0479U); CD69-APC (Biolegend 310910); CD14-PE-Cy7 (Biolegend 325618). Cells were separately stained for anti-human CD45 e450- (eBioscience 48-0459-42) and anti-HA-Biotin PE (Roche 12158167001) followed by a secondary Streptavidin, R-Phycoerythrin Conjugate (Invitrogen s866) stain. This two-step stain was performed by incubating 1-2x10^6 cells at 4°C for 20–30 min, washing with 2% FBS in PBS, then adding the secondary stain, incubating again at 4°C for 20–30 min, and washing with 2% FBS in PBS before fixation with 2% paraformaldehyde. In some experiments, cell death was also evaluated by GHOST Red 780 (Tonbo Biosciences 13–0865) or Zombie Yellow (Biolegend 423104) stains. For this procedure, 10^6 cells were suspended in 100 μL PBS, and then the Zombie yellow and GHOST Red 780 dyes added. Cells were incubated for 20 min at room temperature in the dark and then washed twice with 2% FBS in PBS. Cells were then fixed with 2% paraformaldehyde and incubated for 20 min in the dark. In some experiments cells were then washed with 2% FBS in PBS, resuspended in 1:1 PBS:Human AB serum and then stained for human CD45 and HA, CD3-PE-Cy5 (Biolegend 300310), CD4-ECD (Beckman 6604727), CD8 Per-CO710 (eBioscience 46-0087-42) and CD3-APC (Cell signaling 9602S) as described above.

A short description of series [2]: Plasma cytokine quantification after in vivo administration. The following applies: following administration to C57/bl6 mice. How it is done: Quantification of the levels of the murine cytokines IL-2, IL-6, MIP-1-alpha, and TNF-alpha in mouse plasma samples was performed using a custom Milliplex Mouse Cytokine/Chemokine Magnetic Kit (Millipore) according to the manufacturer’s recommendations. Wash steps were performed using a Bio-Plex II Wash Station (Bio-Rad), and the data were acquired using a Bio-Plex 200 System with high-throughput fluidics (Bio-Rad). The resultant data were analyzed using Bio-Plex Manager 6.1 software.

Another series deals with J-Lat 10.6 cell line. Set-up: method as in PMID 22914190. The following applies: cited from earlier work.
The mark [3] stands for this setting: CD4+ T cells from 3 ART-treated patients, 48h.

The structures appear in SMILES notation. Entries after “also recorded” stand apart in the source; their conditions may differ.

Regarding `C=C1C[C@H]2C[C@]3(O)O[C@H](C[C@@H](O)CC(=O)O[C@@H](CO)C[C@@H]4C/C(=C\C(=O)OC)[C@H](OC(=O)CCCCCCC)[C@@](O)(O4)C(C)(C)/C=C/[C@@H](C1)O2)C[C@H](OC(C)=O)C3(C)C` [SUW133], in series [1] (setting [3]), the “amount of cell-free virion-associated HIV RNA relative to maximal T cell stimulation (costimulation)” value is reported as “approximately 1/3”; the “virus production compared with other LRAs” value was “significantly outperformed panobinostat, vorinostat, JQ1, and bryostatin 1 treatment”. Besides, in series [1] (resting CD4+ T cells from 6 aviremic patients, 50 nM, 36h), the “induction of latent virus (cell-free virion-associated viral RNA)” value is “induced significant levels of latent virus”. For the same compound, the CD69 expression entry in the series on primary CD4+ T cells is listed as “upregulates expression”. The “CD4+ splenocytes expressing CD69” value in the series with murine splenocytes (intraperitoneal injection, 24h post-injection, maximum over ascending doses) was “over 80%”. Further, the “lowest dose inducing CD69 expression” value in the series on murine splenocytes (intraperitoneal injection, C57/bl6 mice) worked out at 1 µg. Besides, in the series on murine splenocytes (single injection of 10 μg), the “CD25 expression on CD3+ T cells in spleen” value is “remained unchanged”. Besides, the “CD69 expression on splenocytes, time course” value in the series on murine splenocytes (single injection of 10 μg, up to day 9) was “transient expression of CD69 on the vast majority of murine splenocytes”. In addition, in series [2], the “plasma concentration of MIP-1-alpha” value is recorded as “no detectable increase”, the “plasma concentration of TNF-alpha” value is given as “no detectable increase” and the “plasma concentration of interleukin (IL)-2” value was “no detectable increase”. In addition, in series [2] (days 1 to 9), the “plasma IL-6 levels” value is “only a short-term elevation; also recorded: declined significantly between days 1 and 9 post-injection”. Besides, the “induction of HIV from latency” value in the series on J-Lat 10.6 cell line is reported as “effectively induced HIV from latency”.
